The target in data set [1] is T1, full-length FAK (Homo sapiens, UniProt Q05397).
T1 construct: purchased Signalchem
The experiment in a line: FAK biochemical kinase assay (LANCE Ultra TR-FRET). To be noted: for dependence of kinase inhibitory activity against full-length FAK on the concentration of ATP: methyl violet 2B at 2.7 μM, FIG. 2. As to the method:
Kinase reactions were performed at room temperature in lysis buffer (50 mM HEPES pH 7.5, 1 mM EGTA, 10 mM MgCl2, 2 mM DTT and 0.01% Tween-20) with 0.3 nM FAK (Signalchem), 100 nM ULight-poly GT (PerkinElmer), 10 μM ATP, and various concentrations (10 fold serial dilution, 6 points) of test compounds at a final volume of 10 μL. After 1 h, the kinase reaction was stopped by adding 10 mM EDTA and progressed by incubating the reaction mixture at room temperature for 5 min. To the mixture was added Detection Mix (Eu-anti-phospho-Tyr (PT66)) antibody to a final concentration of 2 nM and incubated for 1 h at room temperature. The plates were covered before being read using an EnVision® Multilabel reader in TR-FRET mode (excitation at 320 nm and emission at 665 nm, PerkinElmer).
A general note: In TR-FRET formats the signal depends on donor and acceptor labels being close together.

The test system of data set [2] is p-Bad. The experiment in a line: Western analysis, Bad phosphorylation. The following applies: compared to Bcl-2. Type of data set: cell-based, human. As to the method: (§1) After incubating with the test compound for 48 h, both adherent and floating cancer cells were collected. The cells were lysed on ice in lysis buffer (50 mM Tris, pH 7.4, 150 mM NaCl, 1 mM EDTA, 1% NP-40, 0.25% sodium deoxycholate) supplemented with phosphatase inhibitors (Sigma #P2850, #5726; Phosphatase Inhibitor Cocktail I & II) and protease inhibitors (Complete, Mini, EDTA-free; Roche Applied Science) for 20 min. The protein concentration was determined using the Bio-Rad Protein assay reagent (Bio-Rad #500-0006). The lysate was centrifuged at 13000 rpm at 4° C. for 20 min. 50 μg of total proteins were mixed with […] (50 mM Tris-HCl (pH 6.8), 2% SDS, 10% 2-mercaptoethanol, 10% glycerol, and 0.002% bromophenol blue), boiled for 5 min, and subjected to a 10% SDS polyacrylamide gel electrophoresis. The proteins were electrophoresed onto nitrocellulose membranes and detected with antibodies against FER, FAK, DOCK180, Pyk2, Paxillin, AKT, GSK3, PTEN, JNK, ERK, Bcl-2, C-raf and Actin and against phosphorylated FER Tyr402, FAK Tyr925, Tyr861, Tyr577, Tyr576, Tyr397, Pyk2 Tyr402, Paxillin Tyr118, AKT S473, T308, GSK3β S9, JNK, ERK, Bad, C-raf and ERM T567, T564, T558 followed by the addition of horseradish peroxidase (HRP)-conjugated secondary antibodies and 3,3-diaminobenzidine tetrahydrochloride (DAB) as the HRP substrate.

For data set [3], the system named is PTEN. The experiment in a line: Western analysis, PTEN level in A375P cells. Type of data set: cell-based, human. To be noted: 48 h. The method, then:
as §1

In data set [4] the test system is p-JNK. Description: Western analysis, JNK phosphorylation in A375P cells. Type of data set: cell-based, human. The following applies: 10 nM, 48 h. As to the method:
as §1

Data set [5] deals with C-raf. The experiment in a line: Western analysis, C-raf phosphorylation. It counts as cell-based, human. The method, then: as §1
Data set [6] concerns FAK. The experiment in a line: Western analysis, FAK phosphorylation in A375P cells. It counts as cell-based, human. To be noted: 0.1-10 nM, 48 h. As to the method: as §1
Data set [7] has as its system Bcl-2. The experiment in a line: Western analysis, Bcl-2 expression. Type of data set: cell-based, human. The following applies: concentrations >1 nM, concentration-dependent. As to the method: as §1
Data set [8] has as its system AKT. The experiment in a line: Western analysis, AKT phosphorylation in A375P cells. Type of data set: cell-based, human. The following applies: 1 nM, 48 h. As to the method:
as §1

The test system of data set [9] is A375P cells. The experiment in a line: Migration (wound healing) assay, Ibidi Culture-Insert. To be noted: 1 nM, 48 h. Type of data set: cell-based, human. The method, then:
Migration of the A375P cells was assessed by using the Culture-Inserts (Ibidi) according to the manufacturer's protocol. The cells were plated at a density of 1×10^5 cells/well in each well of Culture-Inserts. After 24 h incubation, the Culture-Inserts were removed, and wounds were created by using a 500-μm thick wall. The dish containing these cells was treated with medium containing the compound and incubated at 37° C. for 48 h. Phase-contrast images of the closed gap wound were captured using a microscope.

Data set [10] deals with p-ERK. The experiment in a line: Western analysis, ERK phosphorylation in A375P cells. It counts as cell-based, human. The following applies: 10 nM, 48 h. As to the method:
as §1

Data set [11] has as its system A375P cells. The experiment in a line: QCM ECMatrix Cell Invasion Assay. It counts as cell-based, human. The following applies: 1 nM, 48 h. The method, then: Invasion of A375P cells was assessed by using the QCM ECMatrix Cell Invasion Assay (Chemicon, Millipore, Calif.) according to the manufacturer's protocol. The cells were plated on the membrane of the upper chamber of the transwell at a concentration of 2.5×10^5 cells/well in 500 μL of serum-free medium. The medium in the lower chamber contained the test compound and 10% fetal bovine serum. The cells that passed through the polycarbonate membrane were stained with cell stain solution supplied in the Transwell Invasion assay (Chemicon, Millipore, Calif.) and photographed after 48 h of incubation. The invasion was quantitated by dissolving the stained cells in 10% acetic acid and transferring a consistent amount of the dye/solute mixture to a 96-well plate for colorimetric reading of OD at 560 nm.

The test system of data set [12] is FER Tyr402. Description: Western analysis, FER phosphorylation in A375P cells. To be noted: 10 nM, 48 h. Type of data set: cell-based, human. As to the method:
as §1

Data set [13] concerns GSK3β S9. The experiment in a line: Western analysis, GSK3β phosphorylation in A375P cells. Type of data set: cell-based, human. The following applies: dose-dependent, 48 h. The method, then: as §1
Data set [14] relates to MCF7. The experiment in a line: Anti-proliferative activity assay (MTT / CellTiter-Glo). It counts as cell-based. The following applies: Homo sapiens; MCF7, breast; read-out: IC50 (nM), proliferation. The method, then: (§2) Melanoma cells (A375P, A375SM) and breast cancer cells (MDA-MB-231, MCF7) were maintained in DMEM medium (Welgene, Daegu, Korea). Colorectal cancer cells (HCT116, HT29), lung cancer cells (A549) and prostate cancer cells (DU145) were grown in RPMI1640 medium (Welgene). NIH3T3 and Balb/c cells were cultured in DMEM/F12 medium (Welgene).
(§3) Each medium was supplemented with 10% FBS (Welgene) and 1% penicillin/streptomycin (Welgene) in a humidified atmosphere with 5% CO2 at 37° C. A375P cells were purchased from the American Type Culture Collection (ATCC, Rockville, Md., US), and A375SM, MDA-MB-231, MCF7, HCT116, HT29, A549, DU145, NIH3T3 and Balb/c were purchased from the Korean Cell Line Bank (Seoul, Korea).
(§4) Cells were taken from culture substrate with 0.05% trypsin-0.02% EDTA and plated at a density of 5×10^3 cells/well in 96 well plates and then incubated at 37° C. for 24 h in a humidified atmosphere with 5% CO2 prior to treatment of various concentration (tenfold serial dilution, 6 steps) of test compounds. The cell viability was assessed by the conventional 3-(4,5-dimethylthiazol-2-yl)-2,5-diphenyltetrazolium bromide (MTT) reduction assay and luminescent assay. The MTT and luminescent assays were carried out with CellTiter 96® and CellTiter-Glo® Luminescent Cell Viability Assay (Promega, Wis., USA) according to the manufacturer's instructions. The absorbance at 590 nm was recorded using EnVision2103 (PerkinElmer; Boston, Mass., US). The IC50 value was calculated using the GraphPad Prism 4.0 software.
(Cellular ATP, detected with luciferase, serves as a proxy for viable cell number.)

Data set [15] has as its system A549. Described as above. It counts as cell-based. To be noted: Homo sapiens; A549, lung; read-out: IC50 (nM), proliferation. As to the method:
as §2, §3, §4

Data set [16] concerns HT29. The data set is described as above. Type of data set: cell-based. To be noted: Homo sapiens, HT-29; HT29, colon; read-out: IC50 (nM), proliferation. The method, then: as §2, §3, §4
For data set [17], the system named is MDA-MB-231. The description is as above. Type of data set: cell-based. The following applies: Homo sapiens; MDA-MB-231, breast; read-out: IC50 (nM), proliferation. As to the method: as §2, §3, §4
In data set [18] the test system is A375SM. The description is as above. Type of data set: cell-based. To be noted: Homo sapiens, A375-SM, skin, read-out: IC50 (nM), proliferation. As to the method: as §2, §3, §4
Data set [19] concerns NIH3T3. Described as above. The following applies: Mus musculus; NIH3T3, fibroblast; read-out: IC50 (nM), proliferation. Type of data set: cell-based. As to the method:
as §2, §3, §4

For data set [20], the system named is HCT116. The data set is described as above. It counts as cell-based. The following applies: Homo sapiens, HCT-116; HCT116, colon; read-out: IC50 (nM), proliferation. As to the method:
as §2, §3, §4

In data set [21] the test system is DU145. Described as above. Type of data set: cell-based. The following applies: Homo sapiens, DU-145; DU145, prostate; read-out: IC50 (nM), proliferation. The method, then: as §2, §3, §4
The test system of data set [22] is Balb/c. The description is as above. It counts as cell-based. To be noted: Mus musculus, fibroblast, read-out: IC50 (nM), proliferation. The method, then: as §2, §3, §4
The subject of data set [23] is A375P. The description is as above. Type of data set: cell-based. The following applies: Homo sapiens, skin, read-out: IC50 (nM), proliferation. As to the method:
as §2, §3, §4

Structures are written as SMILES.

T1 sequence (Q05397 whole entry): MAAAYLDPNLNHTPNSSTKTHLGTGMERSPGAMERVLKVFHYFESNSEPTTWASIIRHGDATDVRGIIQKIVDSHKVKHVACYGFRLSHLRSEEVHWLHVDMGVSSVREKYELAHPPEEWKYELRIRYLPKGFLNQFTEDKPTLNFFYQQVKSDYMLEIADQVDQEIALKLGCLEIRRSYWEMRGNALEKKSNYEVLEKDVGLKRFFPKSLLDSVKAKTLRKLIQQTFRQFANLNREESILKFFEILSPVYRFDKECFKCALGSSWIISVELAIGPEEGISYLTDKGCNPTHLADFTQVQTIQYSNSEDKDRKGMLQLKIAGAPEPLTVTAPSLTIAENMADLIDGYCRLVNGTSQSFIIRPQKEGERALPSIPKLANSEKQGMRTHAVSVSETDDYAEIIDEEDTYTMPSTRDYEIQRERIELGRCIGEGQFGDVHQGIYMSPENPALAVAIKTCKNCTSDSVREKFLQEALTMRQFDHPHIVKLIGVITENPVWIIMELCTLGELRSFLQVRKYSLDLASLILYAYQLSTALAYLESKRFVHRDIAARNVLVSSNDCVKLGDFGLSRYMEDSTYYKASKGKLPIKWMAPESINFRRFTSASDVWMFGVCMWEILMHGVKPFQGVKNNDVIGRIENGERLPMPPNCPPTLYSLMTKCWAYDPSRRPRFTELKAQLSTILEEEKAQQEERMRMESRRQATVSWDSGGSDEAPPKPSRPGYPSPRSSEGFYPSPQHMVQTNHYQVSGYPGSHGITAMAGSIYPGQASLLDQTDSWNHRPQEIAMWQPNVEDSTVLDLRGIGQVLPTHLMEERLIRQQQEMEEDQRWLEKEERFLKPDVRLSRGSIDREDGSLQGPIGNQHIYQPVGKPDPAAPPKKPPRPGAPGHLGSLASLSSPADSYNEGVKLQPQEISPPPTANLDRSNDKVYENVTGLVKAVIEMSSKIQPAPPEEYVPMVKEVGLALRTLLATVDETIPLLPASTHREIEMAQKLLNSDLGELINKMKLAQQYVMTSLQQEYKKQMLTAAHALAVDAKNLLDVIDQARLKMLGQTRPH

Consider `CNC(=O)c1ccccc1Nc1nc(Nc2ccc(N3CCOCC3)cc2OC)ncc1Cl` [TAE226, reference compound], for which, in data set [1], the “dependence of kinase inhibitory activity against full-length FAK on the concentration of ATP” value is listed as “inversely proportional to the concentration of ATP”.
For `CN=C1C=CC(=C(c2ccc(N(C)C)cc2)c2ccc(N(C)C)cc2)C=C1.Cl` [methyl violet 2B], the “effect on p-Bad” value in data set [2] was “less effective”. For the same compound, the “level of PTEN” value in data set [3] is on record as “not altered”. For the same compound, in [4], the “inhibitory effect against p-JNK” value is listed as “strong inhibitory effect”. For the same compound, in [5], the “phosphorylation of C-raf” value is on record as “did not affect”. Also, the “inhibitory effect on phosphorylation of FAK Tyr925, Tyr861 and Tyr577” value in data set [6] is “much greater than that of Y576 and Y397”. Besides, the “expression of the anti-apoptotic molecule Bcl-2” value in [7] is “significantly suppressed”. The “inhibition of p-AKT Ser473” value in data set [8] is recorded as “dramatically inhibits”. Also, the “inhibition of p-AKT Thr308” value in [8] was “dramatically inhibits”. For the same compound, the “cancer cell (A375P) motility / migration” value in data set [9] is “suppresses”. For the same compound, the IC50 in data set [1] (10 μM ATP, LANCE Ultra kinase assay) was found to be 2.7 µM; in data set [14], 69.7 nM; in data set [15], 45.6 nM; in [16], 18.1 nM; in data set [17], 13.4 nM; in data set [18] it was 34.1 nM. Besides, the IC50 in data set [19] is 938 nM; in [20], 36.9 nM; in [21], 81.5 nM; in data set [22] it was 59400 nM; in data set [23] it was 19.6 nM. Also, the “dependence of kinase inhibitory activity against full-length FAK on the concentration of ATP” value in data set [1] is given as “independent of the concentration of ATP”. Besides, in data set [10], the “inhibitory effect against p-ERK” value is “strong inhibitory effect”. The “invasion of the A375P cells” value in data set [11] is recorded as “dose-dependent decrease”. Besides, the “inhibition of phosphorylation of FER Tyr402” value in data set [12] is reported as “significantly inhibits”. Also, the “phosphorylation of GSK3β S9” value in [13] was “significantly blocked”.

Source of the values: patent US20140148606A1, “ANTI-TUMOR EFFECTS OF ALLOSTERIC FOCAL ADHESION KINASE INHIBITOR, METHYL VIOLET DERIVATIVES” (Korea Institute of Science and Technology, priority 2012, published 2014).
